Read-outs that look alike come from different tables or passages of the source.
Key:
[1] = test system: Candida albicans (IFO 1060); test: Antimycotic activity: survival of mice infected with Candida albicans; type: in vivo; conditions: IFO1060, 480 h, female ICR mice, oral, 100 mg/kg day for 5 consecutive days, observed for 20 days, control and solvent control 20, read-out: Survival Rate (%)
Method: The evaluation of antimycotic activity can be carried out by administering a dosage of the compound in […] that have been inoculated with a strain of Candida albicans, preferably orally, and observing the mortality of the inoculated mice for 20 days.
The survival rate was calculated from the mean survival days.
Five-week-old female ICR mice of 10 animals per group were infected with Candida albicans (IFO 1060) in an amount of 4.8×10^6 cfu (colony forming unit)/mouse through a tail vein.
After one hour following the introduction of the infection, a solution of each compound (see Table 8 below) in polyethylene glycol 200 was orally administered for 5 consecutive days in the amount of 100 mg/kg day.
In Table 8, the solvent group was administered only with polyethylene glycol.

[2] = target: T1, aromatase (Homo sapiens, UniProt P11511); test: Aromatase inhibitory activity (human placenta microsomes, [19-14C]4-androstene-3,17-dione); type: biochemical
T1 construct: human placenta microsomes (a protein concentration of 0.1 mg/ml); from tissue; host or cells: human placenta microsomes
T1 sequence (P11511 1-503): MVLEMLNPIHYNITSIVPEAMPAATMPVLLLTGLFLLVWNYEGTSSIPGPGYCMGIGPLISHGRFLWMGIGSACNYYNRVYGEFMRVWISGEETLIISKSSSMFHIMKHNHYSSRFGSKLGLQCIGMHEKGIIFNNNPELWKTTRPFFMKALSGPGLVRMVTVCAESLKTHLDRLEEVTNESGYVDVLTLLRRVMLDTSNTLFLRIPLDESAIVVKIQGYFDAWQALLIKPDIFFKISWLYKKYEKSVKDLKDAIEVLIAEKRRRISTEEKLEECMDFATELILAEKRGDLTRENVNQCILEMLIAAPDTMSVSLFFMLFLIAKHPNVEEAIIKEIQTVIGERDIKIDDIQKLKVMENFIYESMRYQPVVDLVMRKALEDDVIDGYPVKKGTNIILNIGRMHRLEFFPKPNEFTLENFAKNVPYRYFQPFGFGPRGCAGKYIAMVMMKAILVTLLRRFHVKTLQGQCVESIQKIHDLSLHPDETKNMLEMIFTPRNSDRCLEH
Method: The aromatase enzyme-inhibitory activity was determined in the manner described by Covey, D. F., Biochem. Biophys. Res. Commu., 157 (1), 81-86, 1988. More specifically, the aromatase-inhibitory activity of a compound of formula (I) was evaluated in terms of the concentration (IC50) of the compound causing 50% inhibition of the aromatase activity.
Aromatase activity was determined in the manner described by Covey, D. F., Biochem. Biophys. Res. Commun. 157 (1), 81-86 (1988).
Aromatase inhibitory activity of the compounds was evaluated in the 50% aromarase-inhibitory concentration (IC50). Microsomes of human-placenta and [19-^14 C]4-androstene-3,17 dione were used as an aromatase source and a substrate, respectively.
The radioactivity of H^14 COOH which was released into a reaction mixture as a result of aromatization was measured to evaluate the aromatase activity.
The aromatase inhibitory activity and the concentration of each compound was depicted in a graph, from which the IC50 was determined.
[19-^14 C]4-Androstene-3,17-dione (1×10^-6 M, 2 KBq/ml), human placenta microsomes (a protein concentration of 0.1 mg/ml), coenzyme NADP (2×10^-3 M), glucose-6-phosphoric acid (4×10^-3 M), and glucose-6-phosphoric acid dehydrogenase (4U/ml) were added to a phosphoric acid buffer solution (67 mM, pH 7.2, 0.5 ml) and reacted at 37° C. for 30 minutes while the mixture was being shaken.
The test compound dissolved in DMSO was added to the reaction mixture and the final concentration of DMSO was in the range of 0.1 to 0.55% by volume per volume.
Chloroform (5 ml) was then added to the reaction mixtures to cease the reaction. The H^14 COOH, which had been released into a reaction mixture, was recovered in a water layer by stirring the reaction mixture. The water layer (0.1 ml) was added to a liquid scintillation cocktail (Atomlight, Dupont, 4 ml) to measure its radioactivity.
The positive control is 4-hydroxyandrostenedione.

[3] = test system: spontaneous mastocarcinoma; test: Antitumor effects: tumor growth inhibition in rats with mastocarcinoma; type: in vivo, Sprague-Dawley rats; conditions: Rattus norvegicus, ip, read-out: Tumor growth inhibition rate (%)
Method: Fifty-day-old female Sprague-Dawley rats were orally given 7,12-dimethylbenzanthracene (15 mg/kg) and observed for two months. Those rats developing spontaneous mastocarcinoma were selected and divided into groups each consisting of 15 animals: groups each of which is to be given a different compound of the present invention; a group to be given a control compound; and a control group to be given a simple physiological saline solution. Each group was intraperitoneally given the corresponding physiological saline solution or dispersion in an amount of 25 mg/kg daily for 20 consecutive days. Five days after the last administration, the rats were sacrificed to weigh the tumors. The mean tumor weight (T) of the 15 rats of each of the groups which had been given compounds of the present invention or the control compound, and the mean tumor weight (C) of the 15 rats of the control group which had been given a simple physiological saline solution were calculated. The tumor growth inhibition rate of each group was calculated on the basis of the following formula:
Tumor Growth Inhibition Rate (%) = {1-T/C)} × 100. Positive control is 4-hydroxyandrostenedione.

[4] = in vivo; conditions: mouse, po
Method: Acute toxicity by oral route was investigated using ICR-JCL mice.
The compounds of the present invention, Compound Nos. 1, 2, 13, 14, 33, 34, 41, 42, 47, 48, 53, 54, 67, and 68, were dissolved or dispersed in polyethylene glycol 200 or physiological saline. The solution or suspension was given in a prescribed amount by means of a syringe or a stomach tube.

[5] = human placenta microsomes, substrate 1×10^-6 M, pH 7.2, 37° C., 30 minutes, read-out: IC50
[6] = female Sprague-Dawley rats given 7,12-dimethylbenzanthracene, intraperitoneal, 25 mg/kg daily for 20 consecutive days, mean tumor weight vs saline control

Compound `OC1(Cn2ccnc2)COCC1Cc1ccc(F)cc1` (stereo not drawn) [compound 22] has a responders at 100 mg/kg [1] of 46%, an IC50 [2, 5] of 0.63 µM and an inhibition in vivo at 25 mg/kg [3, 6] of 75%.
For `CC1(C)OCC(Cc2ccccc2-c2ccccc2)C1(O)Cn1ccnc1` (stereo not drawn) [Compound No. 68], the LD50 at 168 h [4] was > 1000 mg/kg, the responders at 100 mg/kg [1] was 62% and the IC50 [2, 5] was 0.35 µM. For the same compound, the inhibition in vivo at 25 mg/kg [3, 6] was 85%.
In the case of `CC1(C)OCC(Cc2ccc(F)cc2)C1(O)Cn1ccnc1` (stereo not drawn) [Compound No. 14, 4-(4-fluorobenzyl)-3-hydroxy-3-(imidazol-1-ylmethyl)-2,2-dimethyltetrahydrofuran], the LD50 at 168 h [4] is reported as > 1000 mg/kg, the responders at 100 mg/kg [1] is reported as 70% and the IC50 [2] is reported as 0.48 µM. The inhibition in vivo at 25 mg/kg [3, 6] was 63%.
With `CC1(C)OCC(Cc2ccc(F)cc2)C1(O)Cn1cncn1` (stereo not drawn) [Compound No. 13, 4-(4-fluorobenzyl)-3-hydroxy-2,2-dimethyl-3 (1H-1,2,4-triazole-1-ylmethyl) tetrahydrofuran] the LD50 at 168 h [4] was > 1000 mg/kg, the responders at 100 mg/kg [1] was 55% and the IC50 [2] was 5.3 µM. For the same compound, the inhibition in vivo at 25 mg/kg [3, 6] was 58%.
With `CC1(C)OCC(Cc2ccc(F)cc2F)C1(O)Cn1ccnc1` (stereo not drawn) [compound 42] the LD50 at 168 h [4] was > 1000 mg/kg, the responders at 100 mg/kg [1] was 63% and the IC50 [2] was 0.27 µM. The inhibition in vivo at 25 mg/kg [3, 6] was 56%.
In the case of `CC1(C)OCC(Cc2ccccc2-c2ccccc2)C1(O)Cn1cncn1` (stereo not drawn) [Compound No. 67], the LD50 at 168 h [4] is reported as > 1000 mg/kg, the responders at 100 mg/kg [1] is reported as 53% and the IC50 [2] is reported as 4.7 µM. The inhibition in vivo at 25 mg/kg [3, 6] was 74%.
In the case of `CC1(C)OCC(Cc2ccc(Cl)cc2)C1(O)Cn1ccnc1` (stereo not drawn) [Compound No. 34, 4-(4-chlorobenzyl)-3-hydroxy-3-(1H-imidazol-l-ylmethyl) -2,2-dimethyltetrahydrofuran], the LD50 at 168 h [4] is reported as > 1000 mg/kg, the responders at 100 mg/kg [1] is reported as 80% and the IC50 [2] is reported as 0.5 µM. The inhibition in vivo at 25 mg/kg [3, 6] was 80%.
For `CC1OCC(Cc2ccc(F)cc2)C1(O)Cn1ccnc1` (stereo not drawn) [compound 2, 4-(4-fluorobenzyl)-3-hydroxy-3-(imidazol-1-ylmethyl)-2-methyl tetrahydrofuran], the LD50 at 168 h [4] was > 1000 mg/kg, the responders at 100 mg/kg [1] was 55% and the IC50 [2, 5] was 0.53 µM. The inhibition in vivo at 25 mg/kg [3, 6] was 54%.
Work on `OC1(Cn2cncn2)COCC1Cc1ccc(F)cc1` (stereo not drawn) [compound 21] yielded a responders at 100 mg/kg [1] of 37%, an IC50 [2, 5] of 4.7 µM and an inhibition in vivo at 25 mg/kg [3, 6] of 72%.
For `CC1(C)OCC(Cc2ccc(Cl)cc2Cl)C1(O)Cn1cncn1` (stereo not drawn) [compound 47], the LD50 at 168 h [4] was > 1000 mg/kg, the responders at 100 mg/kg [1] was 58% and the IC50 [2] was 1 µM. It also gave an inhibition in vivo at 25 mg/kg [3, 6] of 55%.
With `CC1OCC(Cc2ccc(F)cc2)C1(O)Cn1cncn1` (stereo not drawn) [Compound No. 1, 4-(4-fluorobenzyl)-3-hydroxy-2-methyl-3-(1H-1,2,4-triazol-1-ylmethyl) tetrahydrofuran] the LD50 at 168 h [4] was > 1000 mg/kg, the responders at 100 mg/kg [1] was 40% and the IC50 [2] was 6 µM. It also gave an inhibition in vivo at 25 mg/kg [3, 6] of 60%.
In the case of `CC1(C)OCC(Cc2ccc(C#N)cc2)C1(O)Cn1ccnc1` (stereo not drawn) [Compound No. 54], the LD50 at 168 h [4] is reported as > 1000 mg/kg, the responders at 100 mg/kg [1] is reported as 40% and the IC50 [2, 5] is reported as 1 µM. It also gave an inhibition in vivo at 25 mg/kg [3, 6] of 73%.
With `CC1(C)OCC(Cc2ccc(F)cc2F)C1(O)Cn1cncn1` (stereo not drawn) [compound 41] the LD50 at 168 h [4] was > 1000 mg/kg, the responders at 100 mg/kg [1] was 56% and the IC50 [2] was 3 µM. For the same compound, the inhibition in vivo at 25 mg/kg [3, 6] was 48%.
For `CC1(C)OCC(Cc2ccc(C#N)cc2)C1(O)Cn1cncn1` (stereo not drawn) [Compound No. 53], the LD50 at 168 h [4] was > 1000 mg/kg, the responders at 100 mg/kg [1] was 42% and the IC50 [2] was 1.2 µM. For the same compound, the inhibition in vivo at 25 mg/kg [3, 6] was 60%.
Compound `C[C@]12CCC(=O)C(O)=C1CC[C@@H]1[C@@H]2CC[C@]2(C)C(=O)CC[C@@H]12` [Positive Control, 4-hydroxyandrostenedione, reference compound] has an inhibition in vivo at 25 mg/kg [3] of 48%.
In the case of `CC1(C)OCC(Cc2ccc(Cl)cc2Cl)C1(O)Cn1ccnc1` (stereo not drawn) [compound 48], the LD50 at 168 h [4] is reported as > 1000 mg/kg, the responders at 100 mg/kg [1] is reported as 53% and the IC50 [2] is reported as 1.5 µM. It also gave an inhibition in vivo at 25 mg/kg [3, 6] of 70%.
For `CC1(C)OCC(Cc2ccc(Cl)cc2)C1(O)Cn1cncn1` (stereo not drawn) [Compound No. 33, 4-(4-chlorobenzyl)-3-hydroxy-2,2-dimethyl-3-(1H-1,2,4-triazol-1-ylmethyl) tetrahydrofuran], the LD50 at 168 h [4] was > 1000 mg/kg, the responders at 100 mg/kg [1] was 60% and the IC50 [2] was 7 µM. For the same compound, the inhibition in vivo at 25 mg/kg [3, 6] was 65%.

From patent publication US5462957A, “Azole derivatives, pharmaceutical compositions containing the same, and method for treating mycosis and estrogen-dependent diseases” (Kureha Chemical Industry Co., Ltd., priority 1992, dated 1995)
